# Measurements as given in patent publication US12246095B2, “Oral dosage forms comprising a hops extract” (The New Zealand Institute for Plant and Food Research …, priority 2018, dated 2025).
# Tested on: Hutu80 enteroendocrine cells
# Test: Intracellular calcium in Hutu80 enteroendocrine cells as marker of Tas2R activation
# Assay type: cell-based, human
# Conditions: for EC 50: Hutu-80, change in intracellular calcium at 5 min, doses 200 to 0.2 μM, Pacific Gem extract and purified acids
# Description: The capacity for hops extracts to activate bitter taste receptors was assessed using intracellular calcium concentrations [Ca2+]i as a marker of both Tas2R activation and appetite suppressing hormone release. A screening assay was carried out to compare the effects of high alpha acid and low alpha acid hops extracts on intracellular calcium in Hutu80 enteroendocrine cells. The acid composition of the high alpha acid hops was alpha acid (13.9%), beta acid (7.4%). The acid composition of the low alpha acid hops was alpha acid (2.7%) beta acid (5.0%).
# An EC50 dose response showing the relative change in intracellular calcium in Hutu80 enteroendocrine cells at 5 min following the addition of either a high alpha acid (Pacific Gem, 13.9%) or low alpha acid (Wai-iti, 2.7%) hops extract is shown in FIG. 1 and Table 1.
# Activation of human TAS2Rs receptors was measured by monitoring variations in intracellular Ca^2+ concentrations ([Ca^2+]i) using a Flurostar Omega (BMG LABTECH, Germany) (excitation 485 nm/emission 520 nm).
# Hutu-80 cells (Cat #HTB-40, ATCC Manassas, Virginia) were seeded in supplemented MEM (Cat #11095-080, Thermo Fisher, Walthan, Massachusetts) into Poly-Lysin-coated 96-well black wall, clear bottom plates (Cat #356640, Corning Inc. New York) at a density of 3.5×10^5 cells/ml, 100 μl/wel, cultured overnight and then loaded with the Ca^2+-sensitive fluorescent dye Fluo 4-AM (Cat #F14201, Thermo Fisher, Walthan, Massachusetts), following suppliers guidelines. […]
# Compounds to test were prepared in DMSO (Cat #D8418, Sigma, St. Louis, Missouri) and transferred onto the cells immediately prior to commencing of the assay measurements. To obtain a baseline, fluorescence signals (excitation 485 nm/emission 520 nm) were measured immediately before the addition of compounds on the cells.
# The change in intracellular calcium in Hutu80 enteroendocrine cells was measured at 5 min following the addition of purified hops acids at doses of 200, 63.2, 20, 6.32, 2, 0.632, 0.2 and 0 μM.
Compound,EC 50 [µg/mL],"stimulating bitter taste receptor (Tas2R) signalling in human enteroendocrine cells (Hutu80, intracellular calcium)"
"CC(C)=CCC1=C(O)C(C(=O)C(C)C)=C(O)C(CC=C(C)C)(CC=C(C)C)C1=O [Colupulone, colupulone]",12.72,
"CC(C)=CCC1=C(O)C(O)(CC=C(C)C)C(=O)C(C(=O)C(C)C)=C1O (stereo not drawn) [Cohumulone, cohumulone]",1.153,activity at the lowest concentration
